{"source": "patent US20200239530A1", "about": "“COMPOUNDS AND METHODS OF MODULATING PROTEIN DEGRADATION” (Vividion Therapeutics, Inc., priority 2017, published 2020)", "assay_in_all_cases": "Competitive cysteine profiling, probe competition (Table 2B)", "assay_type_in_all_cases": "binding", "key": {"O95376": {"biological_target": "T1, O95376 (Homo sapiens, UniProt O95376)", "T1 construct": "Cells were resuspended in cold PBS on ice and sonicated with a probe sonicator to achieve lysis; endogenous in cells", "T1 sequence (O95376 1-493)": "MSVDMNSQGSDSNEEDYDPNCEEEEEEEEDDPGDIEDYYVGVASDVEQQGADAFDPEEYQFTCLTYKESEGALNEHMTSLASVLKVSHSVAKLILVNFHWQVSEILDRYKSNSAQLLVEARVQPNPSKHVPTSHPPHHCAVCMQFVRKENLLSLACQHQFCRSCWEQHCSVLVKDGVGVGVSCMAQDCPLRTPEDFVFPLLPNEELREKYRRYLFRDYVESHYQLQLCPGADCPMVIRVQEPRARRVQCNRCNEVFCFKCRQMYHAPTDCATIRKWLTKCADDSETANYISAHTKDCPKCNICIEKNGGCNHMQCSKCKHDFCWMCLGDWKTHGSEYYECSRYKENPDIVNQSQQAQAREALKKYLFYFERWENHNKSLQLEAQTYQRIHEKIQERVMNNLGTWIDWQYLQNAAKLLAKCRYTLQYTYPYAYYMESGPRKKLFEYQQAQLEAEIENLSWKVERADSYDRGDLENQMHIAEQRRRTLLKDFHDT", "details": "500 uM", "from_the_text": "(§1) The following 96-well sample prep protocol was used for sample preparation."}, "P60006": {"biological_target": "T2, P60006 (Homo sapiens, UniProt P60006)", "T2 construct": "Cells were resuspended in cold PBS on ice and sonicated with a probe sonicator to achieve lysis; endogenous in cells", "from_the_text": "as §1"}, "Q5XKL5": {"biological_target": "T3, Q5XKL5 (Homo sapiens, UniProt Q5XKL5)", "T3 construct": "200 μL of lysate containing 5 mg/ml proteome was treated with 2 μL of 100× compound stock; endogenous in cells", "T3 sequence (Q5XKL5 whole entry)": "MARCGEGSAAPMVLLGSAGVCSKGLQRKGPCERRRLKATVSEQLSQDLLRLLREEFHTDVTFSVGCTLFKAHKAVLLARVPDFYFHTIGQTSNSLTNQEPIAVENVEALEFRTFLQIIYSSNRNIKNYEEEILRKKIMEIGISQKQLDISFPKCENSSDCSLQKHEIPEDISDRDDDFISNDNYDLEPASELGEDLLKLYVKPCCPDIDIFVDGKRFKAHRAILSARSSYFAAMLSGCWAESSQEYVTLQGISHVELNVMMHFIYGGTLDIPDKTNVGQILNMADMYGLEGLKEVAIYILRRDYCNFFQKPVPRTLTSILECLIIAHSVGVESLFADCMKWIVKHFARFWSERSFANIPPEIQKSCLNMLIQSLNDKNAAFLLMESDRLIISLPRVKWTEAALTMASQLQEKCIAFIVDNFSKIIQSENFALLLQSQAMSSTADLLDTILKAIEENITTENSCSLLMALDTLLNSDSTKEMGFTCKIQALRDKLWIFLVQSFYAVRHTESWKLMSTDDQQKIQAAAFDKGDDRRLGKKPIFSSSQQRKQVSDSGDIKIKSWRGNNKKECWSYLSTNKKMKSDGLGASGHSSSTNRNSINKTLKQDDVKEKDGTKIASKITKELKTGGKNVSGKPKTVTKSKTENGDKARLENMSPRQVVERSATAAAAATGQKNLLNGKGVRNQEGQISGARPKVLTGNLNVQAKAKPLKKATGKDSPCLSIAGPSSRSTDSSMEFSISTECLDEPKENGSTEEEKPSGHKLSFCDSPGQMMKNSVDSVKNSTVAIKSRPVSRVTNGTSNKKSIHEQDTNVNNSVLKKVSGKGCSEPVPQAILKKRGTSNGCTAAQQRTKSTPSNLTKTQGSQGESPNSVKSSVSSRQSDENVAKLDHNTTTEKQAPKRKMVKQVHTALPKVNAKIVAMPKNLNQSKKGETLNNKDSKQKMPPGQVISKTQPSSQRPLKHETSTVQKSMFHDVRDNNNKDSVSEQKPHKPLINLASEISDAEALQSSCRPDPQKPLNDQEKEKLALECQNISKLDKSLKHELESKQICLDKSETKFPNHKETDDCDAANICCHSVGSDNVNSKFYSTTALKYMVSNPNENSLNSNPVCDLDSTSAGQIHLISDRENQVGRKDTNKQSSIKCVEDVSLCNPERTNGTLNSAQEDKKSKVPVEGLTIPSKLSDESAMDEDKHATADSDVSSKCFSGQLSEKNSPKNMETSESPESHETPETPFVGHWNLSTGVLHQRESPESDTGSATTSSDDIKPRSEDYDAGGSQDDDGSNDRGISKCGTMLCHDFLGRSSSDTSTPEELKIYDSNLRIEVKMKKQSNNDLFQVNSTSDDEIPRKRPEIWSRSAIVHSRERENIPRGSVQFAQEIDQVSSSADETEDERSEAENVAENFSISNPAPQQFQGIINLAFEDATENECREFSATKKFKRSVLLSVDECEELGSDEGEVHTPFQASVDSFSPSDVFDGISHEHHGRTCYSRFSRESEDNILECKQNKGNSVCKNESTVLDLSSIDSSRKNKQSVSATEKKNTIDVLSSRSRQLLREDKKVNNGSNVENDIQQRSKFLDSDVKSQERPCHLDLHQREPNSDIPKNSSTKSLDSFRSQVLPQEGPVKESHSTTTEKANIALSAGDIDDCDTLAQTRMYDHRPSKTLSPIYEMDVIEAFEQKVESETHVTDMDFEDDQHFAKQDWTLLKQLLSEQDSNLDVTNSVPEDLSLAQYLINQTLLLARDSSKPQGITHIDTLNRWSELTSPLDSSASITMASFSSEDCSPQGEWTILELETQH", "from_the_text": "as §1"}, "Q96C12": {"biological_target": "T4, Q96C12 (Homo sapiens, UniProt Q96C12)", "T4 construct": "Cells were resuspended in cold PBS on ice and sonicated with a probe sonicator to achieve lysis; endogenous in cells", "T4 sequence (Q96C12 1-935)": "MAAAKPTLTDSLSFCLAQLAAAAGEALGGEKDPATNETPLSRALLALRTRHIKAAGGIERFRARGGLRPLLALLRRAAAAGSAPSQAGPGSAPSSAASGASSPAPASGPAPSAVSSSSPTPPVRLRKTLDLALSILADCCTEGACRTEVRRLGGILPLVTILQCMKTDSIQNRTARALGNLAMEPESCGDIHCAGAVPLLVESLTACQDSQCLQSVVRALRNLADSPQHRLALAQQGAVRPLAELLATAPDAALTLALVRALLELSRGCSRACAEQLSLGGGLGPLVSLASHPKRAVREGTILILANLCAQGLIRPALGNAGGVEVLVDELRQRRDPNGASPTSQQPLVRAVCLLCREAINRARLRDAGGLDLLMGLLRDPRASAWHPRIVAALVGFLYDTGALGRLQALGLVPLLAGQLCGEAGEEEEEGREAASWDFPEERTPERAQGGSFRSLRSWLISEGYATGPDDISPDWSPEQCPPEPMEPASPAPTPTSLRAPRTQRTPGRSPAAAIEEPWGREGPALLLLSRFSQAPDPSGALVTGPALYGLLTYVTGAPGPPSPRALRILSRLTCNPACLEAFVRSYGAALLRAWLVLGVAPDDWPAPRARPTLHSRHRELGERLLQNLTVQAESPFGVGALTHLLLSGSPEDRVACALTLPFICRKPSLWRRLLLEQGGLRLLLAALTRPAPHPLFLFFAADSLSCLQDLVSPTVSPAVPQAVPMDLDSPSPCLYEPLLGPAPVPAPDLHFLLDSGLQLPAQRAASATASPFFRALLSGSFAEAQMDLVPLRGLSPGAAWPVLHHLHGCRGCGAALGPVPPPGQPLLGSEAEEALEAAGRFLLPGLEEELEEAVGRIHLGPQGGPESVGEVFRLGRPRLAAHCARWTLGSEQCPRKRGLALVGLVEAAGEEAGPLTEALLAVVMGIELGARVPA", "from_the_text": "as §1"}, "Q96P09": {"biological_target": "T5, Q96P09 (Homo sapiens, UniProt Q96P09)", "T5 construct": "200 μL of lysate containing 5 mg/ml proteome was treated with 2 μL of 100× compound stock; endogenous in cells", "T5 sequence (Q96P09 1-236)": "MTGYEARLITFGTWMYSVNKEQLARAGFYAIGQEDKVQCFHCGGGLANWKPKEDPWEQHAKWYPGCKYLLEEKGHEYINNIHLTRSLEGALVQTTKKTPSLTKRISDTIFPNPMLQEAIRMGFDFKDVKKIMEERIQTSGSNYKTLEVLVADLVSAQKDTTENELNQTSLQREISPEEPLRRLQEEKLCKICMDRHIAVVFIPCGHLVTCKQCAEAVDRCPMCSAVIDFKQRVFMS", "from_the_text": "as §1"}, "Q9H765": {"biological_target": "T6, Q9H765 (Homo sapiens, UniProt Q9H765)", "T6 construct": "200 μL of lysate containing 5 mg/ml proteome was treated with 2 μL of 100× compound stock; endogenous in cells", "T6 sequence (Q9H765 1-288)": "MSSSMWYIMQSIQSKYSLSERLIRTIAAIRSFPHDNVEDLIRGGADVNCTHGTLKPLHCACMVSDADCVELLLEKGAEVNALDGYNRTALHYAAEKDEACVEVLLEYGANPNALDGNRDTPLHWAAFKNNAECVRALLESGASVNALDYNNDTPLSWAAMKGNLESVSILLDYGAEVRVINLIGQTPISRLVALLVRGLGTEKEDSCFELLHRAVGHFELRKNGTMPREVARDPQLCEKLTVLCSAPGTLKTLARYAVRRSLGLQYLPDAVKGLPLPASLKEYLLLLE", "from_the_text": "as §1"}, "Q9NYG5": {"biological_target": "T7, Q9NYG5 (Homo sapiens, UniProt Q9NYG5)", "T7 construct": "Cells were resuspended in cold PBS on ice and sonicated with a probe sonicator to achieve lysis; endogenous in cells", "T7 sequence (Q9NYG5 whole entry)": "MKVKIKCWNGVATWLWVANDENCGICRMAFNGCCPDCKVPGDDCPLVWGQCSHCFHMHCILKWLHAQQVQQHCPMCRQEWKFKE", "from_the_text": "as §1"}, "Q9UKV5": {"biological_target": "T8, Q9UKV5 (Homo sapiens, UniProt Q9UKV5)", "T8 construct": "Cells were resuspended in cold PBS on ice and sonicated with a probe sonicator to achieve lysis; endogenous in cells", "T8 sequence (Q9UKV5 whole entry)": "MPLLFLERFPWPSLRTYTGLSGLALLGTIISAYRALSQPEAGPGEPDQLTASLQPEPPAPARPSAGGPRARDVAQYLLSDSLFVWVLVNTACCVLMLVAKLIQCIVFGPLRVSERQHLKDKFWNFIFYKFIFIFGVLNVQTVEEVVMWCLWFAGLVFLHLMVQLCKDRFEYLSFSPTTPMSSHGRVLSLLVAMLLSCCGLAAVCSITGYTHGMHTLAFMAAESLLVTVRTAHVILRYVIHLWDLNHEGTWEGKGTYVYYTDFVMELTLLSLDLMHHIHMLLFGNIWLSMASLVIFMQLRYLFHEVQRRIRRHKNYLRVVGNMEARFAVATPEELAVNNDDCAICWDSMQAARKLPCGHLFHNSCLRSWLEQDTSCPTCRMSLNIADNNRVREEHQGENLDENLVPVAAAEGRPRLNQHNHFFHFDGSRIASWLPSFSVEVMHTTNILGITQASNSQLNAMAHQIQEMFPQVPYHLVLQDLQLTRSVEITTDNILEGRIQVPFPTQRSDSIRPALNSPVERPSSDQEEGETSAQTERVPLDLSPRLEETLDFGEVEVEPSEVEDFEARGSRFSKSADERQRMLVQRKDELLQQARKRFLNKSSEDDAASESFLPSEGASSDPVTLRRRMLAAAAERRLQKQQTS", "from_the_text": "as §1"}, "Q9UM13": {"biological_target": "T9, Q9UM13 (Homo sapiens, UniProt Q9UM13)", "T9 construct": "Cells were resuspended in cold PBS on ice and sonicated with a probe sonicator to achieve lysis; endogenous in cells", "T9 sequence (Q9UM13 whole entry)": "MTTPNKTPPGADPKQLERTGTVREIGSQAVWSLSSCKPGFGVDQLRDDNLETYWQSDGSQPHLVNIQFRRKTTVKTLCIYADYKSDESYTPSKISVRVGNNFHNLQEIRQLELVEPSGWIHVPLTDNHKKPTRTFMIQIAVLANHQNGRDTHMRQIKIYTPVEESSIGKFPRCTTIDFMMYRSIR", "from_the_text": "as §1"}, "[1]": {"details": "100 uM, read-out: KB02_100 uM_percent_inhibition"}, "[2]": {"details": "500 uM, read-out: KB02_500 uM_percent_inhibition"}, "[3]": {"details": "read-out: KB02_100 uM_percent_inhibition"}, "[4]": {"details": "100 uM, read-out: KB05_100 uM_percent_inhibition"}, "[5]": {"details": "500 uM, read-out: KB05_500 uM_percent_inhibition"}, "[6]": {"details": "read-out: KB05_100 uM_percent_inhibition"}}, "note": "Like-named read-outs stand apart in the source and are kept apart here.", "data": [{"smiles": "COc1ccc2c(c1)CCCN2C(=O)CCl", "note": "[KB02]", "values": [{"measurement": "KB02_500 uM_percent_inhibition", "setting": "O95376", "value": 89, "unit": "%"}, {"measurement": "inhibition at 100 µM", "setting": "P60006; [1]", "value": 44, "unit": "%"}, {"measurement": "inhibition at 500 µM", "setting": "P60006; [2]", "value": 93, "unit": "%"}, {"measurement": "inhibition at 100 µM", "setting": "Q5XKL5; [1]", "value": 27, "unit": "%"}, {"measurement": "inhibition at 100 µM", "setting": "Q96C12; [3]", "value": 62, "unit": "%"}, {"measurement": "inhibition at 500 µM", "setting": "Q96P09; read-out: KB02_500 uM_percent_inhibition", "value": 38, "unit": "%"}, {"measurement": "inhibition at 100 µM", "setting": "Q9H765; [1]", "value": 19, "unit": "%"}, {"measurement": "inhibition at 500 µM", "setting": "Q9H765; [2]", "value": 54, "unit": "%"}, {"measurement": "inhibition at 100 µM", "setting": "Q9NYG5; [3]", "value": 41, "unit": "%"}, {"measurement": "inhibition at 100 µM", "setting": "Q9UKV5; [3]", "value": 4, "unit": "%"}, {"measurement": "inhibition at 500 µM", "setting": "Q9UKV5; [2]", "value": 19, "unit": "%"}, {"measurement": "inhibition at 100 µM", "setting": "Q9UM13; [1]", "value": 1, "unit": "%"}, {"measurement": "inhibition at 500 µM", "setting": "Q9UM13; [2]", "value": 53, "unit": "%"}]}, {"smiles": "C=CC(=O)N(c1ccccc1)c1ccc(Br)cc1", "note": "[KB05]", "values": [{"measurement": "KB05_500 uM_percent_inhibition", "setting": "O95376", "value": 79, "unit": "%"}, {"measurement": "inhibition at 100 µM", "setting": "P60006; [4]", "value": 24, "unit": "%"}, {"measurement": "inhibition at 500 µM", "setting": "P60006; [5]", "value": 74, "unit": "%"}, {"measurement": "KB05_500 uM_percent_inhibition", "setting": "Q5XKL5; 500 uM", "value": 55, "unit": "%"}, {"measurement": "inhibition at 500 µM", "setting": "Q5XKL5; [5]", "value": 37, "unit": "%"}, {"measurement": "inhibition at 100 µM", "setting": "Q96C12; [6]", "value": 23, "unit": "%"}, {"measurement": "inhibition at 500 µM", "setting": "Q96P09; read-out: KB05_500 uM_percent_inhibition", "value": 45, "unit": "%"}, {"measurement": "inhibition at 500 µM", "setting": "Q9H765; [5]", "value": 37, "unit": "%"}, {"measurement": "inhibition at 100 µM", "setting": "Q9NYG5; [6]", "value": 27, "unit": "%"}, {"measurement": "inhibition at 100 µM", "setting": "Q9UKV5; [6]", "value": 5, "unit": "%"}, {"measurement": "inhibition at 500 µM", "setting": "Q9UKV5; [5]", "value": 18, "unit": "%"}, {"measurement": "inhibition at 100 µM", "setting": "Q9UM13; [4]", "value": 18, "unit": "%"}, {"measurement": "inhibition at 500 µM", "setting": "Q9UM13; [5]", "value": 62, "unit": "%"}]}, {"smiles": "O=C(CCl)Nc1cc(C(F)(F)F)cc(C(F)(F)F)c1", "note": "[KBO3]", "values": [{"measurement": "KB03_500 uM_percent_inhibition", "setting": "O95376", "value": 100, "unit": "%"}, {"measurement": "KB03_100 uM_percent_inhibition", "setting": "P60006; 100 uM", "value": 49, "unit": "%"}, {"measurement": "KB03_500 uM_percent_inhibition", "setting": "P60006; 500 uM", "value": 65, "unit": "%"}, {"measurement": "KB03_500 uM_percent_inhibition", "setting": "Q5XKL5; 500 uM", "value": 18, "unit": "%"}, {"measurement": "KB03_100 uM_percent_inhibition", "setting": "Q96C12; 100 uM", "value": 40, "unit": "%"}, {"measurement": "KB03_500 uM_percent_inhibition", "setting": "Q96P09; 500 uM", "value": 21, "unit": "%"}, {"measurement": "KB03_500 uM_percent_inhibition", "setting": "Q9H765; 500 uM", "value": 40, "unit": "%"}, {"measurement": "KB03_100 uM_percent_inhibition", "setting": "Q9NYG5; 100 uM", "value": 51, "unit": "%"}, {"measurement": "KB03_500 uM_percent_inhibition", "setting": "Q9UKV5; 500 uM", "value": 48, "unit": "%"}, {"measurement": "KB03_100 uM_percent_inhibition", "setting": "Q9UM13; 100 uM", "value": 11, "unit": "%"}, {"measurement": "KB03_500 uM_percent_inhibition", "setting": "Q9UM13; 500 uM", "value": 37, "unit": "%"}]}]}
